The numbers were not newly measured in patent US20250325480A1, “Lipid Nanoparticle Compositions and Methods For Formulating Insoluble Drugs” (RESPIRERX PHARMACEUTICALS, INC., priority 2022, published 2025), which cites them from elsewhere.

Test in series [1]: not given
The source holds these as a separate data set.

The structures appear in SMILES notation.

`CCCCCc1cc(O)c2c(c1)OC(C)(C)[C@@H]1CCC(C)=C[C@@H]21` [Dronabinol, (−)-trans-Δ^9-tetrahydrocannabinnol]: under “as presently formulated”, the “Metabolic breakdown upon first pass through the liver” value was “approximately 80%”. The Half-life (in vivo) was 2 to 3 h. Further, in series [1] (10 mg dose, Marinol package insert), the Adverse side effects result is “unacceptable adverse side effects”. For the same compound, the OSA alleviating effects entry in series [1] (2.5 and 10 mg doses, first 4 hours of 8-hour test period) is recorded as “therapeutically equivalent OSA alleviating effects”. Besides, the “Therapeutic effects in OSA” value in series [1] (second 4 hours of 8-hour test period) is listed as “only the 10 mg dose produced therapeutic effects”.
